The source of these data is paper PMC9627135 (Cancer discovery, 2022).

One data set relates to HOXA9/10 expression. Description: Time course of HOXA9/10 expression. The class given is cell-based. Conditions: Supplementary Fig. S6D, S6E.
Data set [1] relates to primary human hepatocytes. Conditions: cited from earlier work.
The next data set addresses ENL-FKBP12(F36V) (Homo sapiens, UniProt Q03111). In words: dTAG-mediated degradation of ENL-FKBP12. Conditions: treatment for 6 or 24 hours. The class given is cell-based.

As to `CC(C)N(C[C@H]1O[C@@H](n2cnc3c(N)ncnc32)[C@H](O)[C@@H]1O)[C@H]1C[C@@H](CCc2nc3cc(C(C)(C)C)ccc3[nH]2)C1` [EPZ-5676], the “kinetics of suppression of HOXA9/10 expression” value with HOXA9/10 expression is “suppressed expression of the same genes at much later time points”.

On to `C[C@H]1CCCN1Cc1nc2cc(NC(=O)c3ccc4c(cnn4C)c3)ccc2[nH]1` [SGC-iMLLT], for which, in data set [1], the “half-life in primary human hepatocytes” value was “modest half-life”.

For `CC[C@H](C(=O)N1CCCC[C@H]1C(=O)O[C@H](CCc1ccc(OC)c(OC)c1)c1ccccc1OCC(=O)NCCCCCCOc1cccc2c1C(=O)N(C1CCC(=O)NC1=O)C2=O)c1cc(OC)c(OC)c(OC)c1` (stereo partly drawn) [dTAG13], the “level of ENL-FKBP12 proteins” value on ENL-FKBP12(F36V) is given as “substantial decrease of ENL-FKBP12 proteins”.
